Experimental data reported in the NIST ThermoML archive (doi:10.1021/acs.jced.5b00251).

Experiment: refractive index (other wavelength) (dimensionless); xn = mol fraction of the nth substance listed
Settings: 101 kPa, Liquid, Standard Abbe refractometry

c1ccc2c(c1)CCCC2 [1,2,3,4-tetrahydronaphthalene] + CCCCCCCCCCCC
refractive index
Settings | x1 = 0.1014 | x1 = 0.2024 | x1 = 0.3032 | x1 = 0.4036 | x1 = 0.5038 | x1 = 0.6036 | x1 = 0.7032 | x1 = 0.8024 | x1 = 0.9014
293.15 K, Wavelength=436.1 nm | 1.44127 | 1.45203 | 1.46314 | 1.47515 | 1.48812 | 1.50126 | 1.51481 | 1.52971 | 1.54558
293.15 K, Wavelength=513.9 nm | 1.43473 | 1.44489 | 1.45538 | 1.46671 | 1.47843 | 1.49106 | 1.50417 | 1.51804 | 1.53275
293.15 K, Wavelength=589.3 nm | 1.43105 | 1.44086 | 1.45101 | 1.46197 | 1.47329 | 1.48552 | 1.49803 | 1.51156 | 1.52591
293.15 K, Wavelength=633.2 nm | 1.42949 | 1.43917 | 1.44918 | 1.45999 | 1.47113 | 1.48318 | 1.49553 | 1.50887 | 1.52288
293.15 K, Wavelength=657.2 nm | 1.42878 | 1.43896 | 1.44835 | 1.45921 | 1.47078 | 1.48194 | 1.4944 | 1.50801 | 1.52229
298.15 K, Wavelength=436.1 nm | 1.439 | 1.44978 | 1.46073 | 1.47277 | 1.48561 | 1.49875 | 1.51238 | 1.52724 | 1.54301
298.15 K, Wavelength=513.9 nm | 1.43249 | 1.44267 | 1.4533 | 1.46438 | 1.47612 | 1.48874 | 1.50164 | 1.51563 | 1.53046
298.15 K, Wavelength=589.3 nm | 1.42884 | 1.43868 | 1.44896 | 1.45965 | 1.47078 | 1.48302 | 1.4955 | 1.50927 | 1.52353
298.15 K, Wavelength=633.2 nm | 1.42729 | 1.43699 | 1.44692 | 1.45768 | 1.4689 | 1.4807 | 1.4932 | 1.50652 | 1.52049
298.15 K, Wavelength=657.2 nm | 1.42675 | 1.43623 | 1.44627 | 1.45678 | 1.46851 | 1.47967 | 1.49181 | 1.50529 | 1.5199
303.15 K, Wavelength=436.1 nm | 1.43671 | 1.44738 | 1.45818 | 1.4705 | 1.48295 | 1.49619 | 1.50983 | 1.52452 | 1.54034
303.15 K, Wavelength=513.9 nm | 1.43024 | 1.44033 | 1.45084 | 1.46216 | 1.47359 | 1.48633 | 1.49917 | 1.51321 | 1.52785
303.15 K, Wavelength=589.3 nm | 1.42659 | 1.43636 | 1.44635 | 1.45733 | 1.46841 | 1.48085 | 1.49318 | 1.50685 | 1.52095
303.15 K, Wavelength=633.2 nm | 1.42505 | 1.4347 | 1.44438 | 1.45549 | 1.46668 | 1.47855 | 1.49077 | 1.50415 | 1.51798
303.15 K, Wavelength=657.2 nm | 1.42434 | 1.434 | 1.44387 | 1.45441 | 1.46615 | 1.47729 | 1.48949 | 1.50284 | 1.51741
308.15 K, Wavelength=436.1 nm | 1.43455 | 1.44495 | 1.45589 | 1.46783 | 1.4805 | 1.49371 | 1.50749 | 1.52185 | 1.538
308.15 K, Wavelength=513.9 nm | 1.42811 | 1.43794 | 1.44864 | 1.45985 | 1.47118 | 1.48392 | 1.49684 | 1.51075 | 1.52559
308.15 K, Wavelength=589.3 nm | 1.4245 | 1.434 | 1.44408 | 1.45488 | 1.46618 | 1.47848 | 1.49085 | 1.50425 | 1.51872
308.15 K, Wavelength=633.2 nm | 1.42297 | 1.43234 | 1.44222 | 1.45318 | 1.46436 | 1.4762 | 1.48855 | 1.50145 | 1.51565
308.15 K, Wavelength=657.2 nm | 1.42224 | 1.4316 | 1.44127 | 1.45195 | 1.46385 | 1.47498 | 1.48694 | 1.50013 | 1.51517
313.15 K, Wavelength=436.1 nm | 1.43218 | 1.44283 | 1.45339 | 1.46524 | 1.47822 | 1.49111 | 1.50491 | 1.51939 | 1.5354
313.15 K, Wavelength=513.9 nm | 1.42576 | 1.43568 | 1.44614 | 1.45759 | 1.46885 | 1.48167 | 1.49443 | 1.50825 | 1.52307
313.15 K, Wavelength=589.3 nm | 1.42227 | 1.43177 | 1.44157 | 1.45242 | 1.46372 | 1.47625 | 1.48857 | 1.50166 | 1.51623
313.15 K, Wavelength=633.2 nm | 1.42066 | 1.43026 | 1.43979 | 1.45075 | 1.46185 | 1.47398 | 1.48614 | 1.49928 | 1.51325
313.15 K, Wavelength=657.2 nm | 1.41998 | 1.42919 | 1.439 | 1.44965 | 1.46161 | 1.47245 | 1.48468 | 1.49759 | 1.51275
318.15 K, Wavelength=436.1 nm | 1.43001 | 1.44026 | 1.45084 | 1.46269 | 1.47578 | 1.48857 | 1.50241 | 1.51672 | 1.5331
318.15 K, Wavelength=513.9 nm | 1.42366 | 1.43333 | 1.44405 | 1.45487 | 1.46645 | 1.47929 | 1.49184 | 1.50571 | 1.52083
318.15 K, Wavelength=589.3 nm | 1.42009 | 1.42933 | 1.43955 | 1.44985 | 1.46145 | 1.47389 | 1.48615 | 1.49906 | 1.51403
318.15 K, Wavelength=633.2 nm | 1.41859 | 1.42777 | 1.43785 | 1.44826 | 1.45981 | 1.47165 | 1.48389 | 1.49667 | 1.51123
318.15 K, Wavelength=657.2 nm | 1.41814 | 1.42702 | 1.43701 | 1.44718 | 1.45934 | 1.47014 | 1.48216 | 1.49507 | 1.51044
